Experiments:
Type in all cases: binding
[1] = target: T1, panel of 442 kinases (Homo sapiens, UniProt Q07912); details: kinase TNK2; compound concentration 10 µM
T1 construct: purchased KINOMEscan
From the text: (§1) We assessed the selectivity of members of this scaffold using the KINOMEscan methodology across a near comprehensive panel of 442 kinases [[18,27]].

[2] = target: T2, panel of 442 kinases (Homo sapiens, UniProt O43318); details: kinase TAK1; compound concentration 10 µM
T2 construct: purchased KINOMEscan
T2 sequence (O43318 1-606): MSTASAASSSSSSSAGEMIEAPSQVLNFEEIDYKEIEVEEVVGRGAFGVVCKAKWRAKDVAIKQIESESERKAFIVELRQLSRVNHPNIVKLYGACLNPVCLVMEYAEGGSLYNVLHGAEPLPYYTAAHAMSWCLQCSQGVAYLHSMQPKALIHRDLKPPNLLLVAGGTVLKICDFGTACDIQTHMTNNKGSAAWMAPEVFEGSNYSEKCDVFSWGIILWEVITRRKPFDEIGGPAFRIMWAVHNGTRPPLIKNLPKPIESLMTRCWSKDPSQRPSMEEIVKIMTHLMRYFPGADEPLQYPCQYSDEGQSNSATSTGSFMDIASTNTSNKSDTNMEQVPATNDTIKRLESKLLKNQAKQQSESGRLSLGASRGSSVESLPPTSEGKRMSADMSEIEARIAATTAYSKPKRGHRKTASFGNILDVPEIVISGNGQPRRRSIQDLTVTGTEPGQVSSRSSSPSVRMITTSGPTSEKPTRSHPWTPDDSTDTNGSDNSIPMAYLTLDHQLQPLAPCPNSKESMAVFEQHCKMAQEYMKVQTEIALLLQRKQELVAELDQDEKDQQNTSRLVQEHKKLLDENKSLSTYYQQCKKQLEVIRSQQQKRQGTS
From the text: as §1

[3] = target: T3, panel of 442 kinases (Mycobacterium tuberculosis, UniProt P9WI81); details: Compound Concentration 10 µM
T3 construct: purchased KINOMEscan
T3 sequence (P9WI81 whole entry): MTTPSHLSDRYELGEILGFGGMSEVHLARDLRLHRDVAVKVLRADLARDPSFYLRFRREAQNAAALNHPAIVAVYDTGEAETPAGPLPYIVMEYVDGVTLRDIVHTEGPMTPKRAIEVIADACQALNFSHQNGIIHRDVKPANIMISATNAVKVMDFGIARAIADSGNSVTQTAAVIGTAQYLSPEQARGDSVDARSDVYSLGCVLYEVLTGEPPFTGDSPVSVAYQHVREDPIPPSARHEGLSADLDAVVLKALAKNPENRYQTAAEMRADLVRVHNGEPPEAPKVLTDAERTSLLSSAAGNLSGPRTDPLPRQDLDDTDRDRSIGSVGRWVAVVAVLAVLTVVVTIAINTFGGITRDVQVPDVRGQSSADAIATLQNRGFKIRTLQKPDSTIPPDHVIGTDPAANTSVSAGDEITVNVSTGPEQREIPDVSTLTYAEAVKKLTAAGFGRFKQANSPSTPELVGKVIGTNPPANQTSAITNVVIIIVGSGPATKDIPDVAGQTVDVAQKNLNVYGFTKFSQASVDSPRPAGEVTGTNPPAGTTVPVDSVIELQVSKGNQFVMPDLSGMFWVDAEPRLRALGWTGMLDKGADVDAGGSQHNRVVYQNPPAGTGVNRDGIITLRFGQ
From the text: as §1

T1 sequence (Q07912 whole entry): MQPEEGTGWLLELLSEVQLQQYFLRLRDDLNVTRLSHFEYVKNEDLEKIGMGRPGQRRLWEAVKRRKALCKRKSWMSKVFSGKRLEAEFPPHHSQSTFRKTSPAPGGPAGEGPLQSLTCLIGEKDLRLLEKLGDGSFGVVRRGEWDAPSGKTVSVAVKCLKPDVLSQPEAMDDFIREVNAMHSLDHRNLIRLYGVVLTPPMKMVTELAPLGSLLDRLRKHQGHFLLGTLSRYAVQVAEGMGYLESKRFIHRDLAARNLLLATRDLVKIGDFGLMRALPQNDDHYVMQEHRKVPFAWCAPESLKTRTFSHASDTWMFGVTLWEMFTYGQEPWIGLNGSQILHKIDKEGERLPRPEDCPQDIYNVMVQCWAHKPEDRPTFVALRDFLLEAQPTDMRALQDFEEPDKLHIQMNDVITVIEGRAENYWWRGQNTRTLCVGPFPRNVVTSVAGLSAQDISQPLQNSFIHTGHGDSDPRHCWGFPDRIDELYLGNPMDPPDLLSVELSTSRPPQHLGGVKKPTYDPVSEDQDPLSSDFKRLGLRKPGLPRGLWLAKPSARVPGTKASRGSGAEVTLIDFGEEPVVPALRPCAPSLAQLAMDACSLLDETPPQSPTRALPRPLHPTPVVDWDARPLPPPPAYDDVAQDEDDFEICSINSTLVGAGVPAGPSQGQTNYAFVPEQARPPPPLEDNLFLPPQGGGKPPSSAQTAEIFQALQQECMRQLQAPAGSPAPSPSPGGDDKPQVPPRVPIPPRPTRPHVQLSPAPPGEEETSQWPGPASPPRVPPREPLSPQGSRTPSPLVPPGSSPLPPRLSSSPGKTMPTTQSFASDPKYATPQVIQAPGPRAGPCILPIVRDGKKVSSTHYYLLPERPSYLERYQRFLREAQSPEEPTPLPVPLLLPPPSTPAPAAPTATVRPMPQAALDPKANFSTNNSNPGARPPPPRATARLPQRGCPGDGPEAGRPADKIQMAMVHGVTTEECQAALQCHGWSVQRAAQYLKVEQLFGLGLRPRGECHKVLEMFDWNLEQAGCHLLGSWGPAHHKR

Structure (SMILES) | % Ctrl, TNK2 [1] [% Ctrl] | % Ctrl, TAK1 [2] [% Ctrl] | KINOMEscan: PKNB(M.tuberculosis) [3]
COc1cc(C(=O)N2CCC(N3CCN(C)CC3)CC2)ccc1Nc1ncc2c(n1)N(C)c1ccccc1C(=O)N2C [15 (LRRK2-IN-1)] | 18 | 98 | 100
COc1cc(C(=O)N2CCC(N3CCN(C)CC3)CC2)ccc1Nc1ncc2c(n1)N1CCc3cccc(c31)C(=O)N2C [Compound 24] | 43 | 100 | 98
COc1cc(C(=O)N2CCC(N3CCN(C)CC3)CC2)ccc1Nc1ncc2c(n1)N(C1CCCC1)c1ccccc1C(=O)N2C [Compound 25, 11-cyclopentyl-2-((2-methoxy-4-(4-(4-methylpiperazin-1-yl)piperidine-1-carbonyl)phenyl)amino)-5-methyl-5H-benzo[e]pyrimido[5,4-b][1,4]diazepin-6(11H)-one] | 35 | 100 | 100
CCOc1cc(C(=O)N2CCC(N3CCN(C)CC3)CC2)ccc1Nc1ncc2c(n1)N(C1CCCC1)c1ccccc1C(=O)N2C [Compound 26] | 80 | 100 | 96

— PMC3914206
